These results are taken from patent publication US20240041804A1, “NHE-1 INHIBITORS FOR THE TREATMENT OF CORONAVIRUS INFECTIONS” (priority 2020, published 2024).

Series [1] addresses SARS-CoV envelope protein ion channels (SARS-CoV E protein) (Severe acute respiratory syndrome coronavirus, UniProt P59637). Conditions: cited from earlier work.
Series [2] deals with store-operated calcium entry (SOCE). Kind of series: Store-operated calcium entry (45Ca2+ accumulation) in myotubes. The class given is cell-based.
The test system of series [3] is LPS induced lung injury. Conditions: amiloride pretreatment 10 mg/kg intravenous injection, rats; cited from earlier work.
Series [4] addresses T1, NHE-1 (Mus musculus, UniProt Q61165).
T1 construct: time-course of ^22Na^+ influx studied in wild type and dystrophic myotube cultures; endogenous in cells; host or cells: primary wild type and dystrophic myotubes
Kind of series: 22Na+ influx in myotube cultures. The class given is cell-based.

The test system of series [5] is Su/Hx rat model of PAH. The series can be described thus: Su/Hx rat model of PAH: lung inflammation (CD68). The class given is in vivo. Conditions: 100 mg/kg/day in drinking water week 5-8; Su/Hx+Rime vs Su/Hx, week 8.
The test system of series [6] is dystrophic, mdx mice. Kind of series: Fibrosis in heart and diaphragm of mdx mice. The class given is in vivo, mouse. Conditions: given in a preventive manner.
For series [7], the system named is rat model of myocardial infarction. Kind of series: Rat model of myocardial infarction (30 min occlusion, 90 min reperfusion). The series is classed as in vivo. Conditions: prophylactic, 0.01 to 1 mg/kg intravenously and 0.1 to 1 mg/kg per os.
For series [8], the target named is T2, sodium-hydrogen exchange activity (NHE-1) (Rattus norvegicus, UniProt P26431).
T2 construct: performed in rat PASMCs in vitro of both Normoxic and Su/Hx pulmonary hypertension (PH) rats; endogenous in cells; host or cells: primary rat PASMCs from normoxic and Su/Hx pulmonary hypertension rats
T2 sequence (P26431 whole entry): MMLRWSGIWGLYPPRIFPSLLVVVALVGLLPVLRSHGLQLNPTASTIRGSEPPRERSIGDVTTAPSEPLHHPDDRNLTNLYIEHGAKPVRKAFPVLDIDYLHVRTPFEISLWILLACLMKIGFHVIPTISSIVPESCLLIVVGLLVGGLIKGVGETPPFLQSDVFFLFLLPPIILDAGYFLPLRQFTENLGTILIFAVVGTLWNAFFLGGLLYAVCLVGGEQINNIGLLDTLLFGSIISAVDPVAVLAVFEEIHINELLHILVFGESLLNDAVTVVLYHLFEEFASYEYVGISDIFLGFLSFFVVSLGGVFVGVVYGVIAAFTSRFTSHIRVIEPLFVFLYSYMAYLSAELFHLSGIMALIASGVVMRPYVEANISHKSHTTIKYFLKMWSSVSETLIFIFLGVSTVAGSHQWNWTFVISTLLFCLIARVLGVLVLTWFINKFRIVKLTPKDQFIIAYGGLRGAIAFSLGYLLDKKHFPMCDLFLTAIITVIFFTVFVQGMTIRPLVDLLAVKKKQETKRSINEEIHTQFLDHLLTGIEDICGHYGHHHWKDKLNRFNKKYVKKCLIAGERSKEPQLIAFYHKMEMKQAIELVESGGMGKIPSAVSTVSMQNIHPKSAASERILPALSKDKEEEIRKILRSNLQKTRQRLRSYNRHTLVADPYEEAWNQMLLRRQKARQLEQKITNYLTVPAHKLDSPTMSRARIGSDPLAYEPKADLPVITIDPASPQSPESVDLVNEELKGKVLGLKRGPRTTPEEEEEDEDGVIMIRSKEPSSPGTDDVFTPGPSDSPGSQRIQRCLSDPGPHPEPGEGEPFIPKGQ
Kind of series: NHE activity (BCECF) in rat pulmonary arterial smooth muscle cells. The class given is cell-based. Conditions: PASMCs of Su/Hx pulmonary hypertension rats, 10^-6 to 10^-4 M.

Series [9] concerns platelet aggregation.
Series [10] relates to male mdx mice. The series can be described thus: Cathepsin enzyme activity by optical imaging (skeletal muscle inflammation) in mdx mice. The series is classed as in vivo, mouse. Conditions: 400 ppm Rimeporide in food, 5 weeks.
Series [11] deals with Su/Hx rat model of PAH. Kind of series: Su/Hx rat model of PAH: right ventricle hypertrophy and fibrosis. The series is classed as in vivo. Conditions: 100 mg/kg/day in drinking water week 5-8; Su/Hx+Rime vs Su/Hx, week 8.
Series [12] concerns Su/Hx rat model of PAH. The series can be described thus: Su/Hx rat model of PAH: pulmonary vascular fibrosis (Masson trichome). The series is classed as in vivo. Conditions: 100 mg/kg/day in drinking water week 5-8; Su/Hx+Rime vs Su/Hx, week 8.
Series [13] concerns human platelet swelling. The series can be described thus: In vitro platelet swelling assay with human platelet rich plasma. The class given is cell-based. Conditions: OD 680 nm, pH 6.6, read-out: IC50 of inhibition of platelet swelling (+SEM).
For series [14] the following is noted: single oral dose.
The test system of series [15] is Su/Hx rat model of PAH. Kind of series: Su/Hx rat model of PAH: invasive hemodynamic monitoring. The class given is in vivo. Conditions: 100 mg/kg/day in drinking water week 5-8; Su/Hx+Rime vs Su/Hx, week 8.
Series [16] deals with platelet swelling. Kind of series: Ex vivo platelet swelling, Rimeporide single oral ascending dose study. Conditions: single oral dose 300 to 600 mg, healthy male volunteers. The series is classed as in vivo, human.
Series [17] has as its system male mdx mice. Kind of series: Ex vivo H&E histopathology of diaphragm inflammation in mdx mice. Details: species or system mouse. Conditions: 400 ppm Rimeporide.
The test system of series [18] is platelet swelling. Kind of series: Ex vivo platelet swelling, Rimeporide multiple ascending dose study. The series is classed as in vivo, human. Conditions: day 3, multiple ascending dose study.
Series [19] deals with Su/Hx rat model of PAH. The series can be described thus: Su/Hx rat model of PAH: echocardiography. The series is classed as in vivo. Conditions: 100 mg/kg/day in drinking water week 5-8; Su/Hx+Rime vs Su/Hx, week 8.
The test system of series [20] is plasma circulating biomarkers (CCL15, KLK6, FAS, TNFα, MCP-1/CCL2). Details: Term, TNFα: unit not given here. Conditions: DMD patients, 4-week oral treatment, cited from earlier work.
The subject of series [21] is pigs of myocardial infarction. Kind of series: Anesthetized open-chest pig model of myocardial infarction. The series is classed as in vivo. Conditions: 1 mg/kg iv before occlusion, 7 mg/kg iv before reperfusion.
The test system of series [22] is rat model of heart failure. Kind of series: Rat model of heart failure after myocardial infarction (permanent left coronary artery ligation). The class given is in vivo.
Series [23] has as its system platelet swelling. Kind of series: Ex vivo platelet swelling, Eniporide phase I studies in healthy subjects. Details: species or system human.

Entries after “also recorded” stand apart in the source; their conditions may differ. Like-named read-outs stand apart in the source and are kept apart here.

T1 sequence (Q61165 whole entry): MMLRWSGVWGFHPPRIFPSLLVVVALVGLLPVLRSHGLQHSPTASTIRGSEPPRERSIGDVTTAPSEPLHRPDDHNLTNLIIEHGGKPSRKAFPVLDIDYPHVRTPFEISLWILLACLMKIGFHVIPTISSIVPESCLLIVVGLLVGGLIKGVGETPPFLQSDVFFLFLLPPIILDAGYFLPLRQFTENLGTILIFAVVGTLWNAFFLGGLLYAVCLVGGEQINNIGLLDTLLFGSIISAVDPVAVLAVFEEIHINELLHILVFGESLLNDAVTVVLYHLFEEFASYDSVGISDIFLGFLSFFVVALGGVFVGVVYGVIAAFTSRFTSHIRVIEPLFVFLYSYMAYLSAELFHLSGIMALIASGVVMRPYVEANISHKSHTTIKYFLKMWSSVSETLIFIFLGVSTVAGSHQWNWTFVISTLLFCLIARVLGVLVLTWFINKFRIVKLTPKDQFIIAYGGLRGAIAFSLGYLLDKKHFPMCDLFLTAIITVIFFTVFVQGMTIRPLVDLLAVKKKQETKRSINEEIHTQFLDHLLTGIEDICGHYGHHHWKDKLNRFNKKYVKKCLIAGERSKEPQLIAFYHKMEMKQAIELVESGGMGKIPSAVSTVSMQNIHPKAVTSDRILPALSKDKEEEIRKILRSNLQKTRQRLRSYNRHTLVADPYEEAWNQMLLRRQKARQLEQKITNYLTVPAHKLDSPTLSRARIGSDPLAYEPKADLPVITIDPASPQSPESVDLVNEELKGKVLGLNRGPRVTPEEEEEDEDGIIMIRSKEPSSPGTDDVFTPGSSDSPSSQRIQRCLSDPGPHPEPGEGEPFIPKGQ
Chain of SARS-CoV envelope protein ion channels (SARS-CoV E protein) (P59637 whole entry, looked up): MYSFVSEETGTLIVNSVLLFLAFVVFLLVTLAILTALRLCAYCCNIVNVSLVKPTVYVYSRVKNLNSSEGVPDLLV

Turning to `NC(N)=NC(=O)c1nc(Cl)c(N2CCCCCC2)nc1N` [HMA, 5-N, N-(hexamethylene)amiloride], in series [1], the “effect on activity of E-proteins (ion channel)” value is recorded as “significantly reduced activity of E-proteins”.
For the molecule `Cc1nnsc1C(=O)Nc1ccc(-n2nc(C(F)(F)F)cc2C(F)(F)F)cc1` [BTP-2, reference compound], the “effect on store-operated calcium entry (SOCE)” value in series [2] is on record as “abolished”. Further, the “inhibition of Ca2+ flux (SOCE protocol)” value in series [2] (10 μM) is on record as “almost complete inhibition”.
With `NC(N)=NC(=O)c1nc(Cl)c(N)nc1N` [Amiloride, 3,5-Diamino-N-carbamimidoyl-6-chlorpyrazin-2-carbamid], the “LPS induced lung injury” value in series [3] is given as “significantly inhibited”. Besides, the “effect on activity of E-proteins (ion channel)” value in series [1] is reported as “quasi-ineffective”.
With `N=C(N)NC(=O)c1cnn(-c2cccc3ncccc23)c1C1CC1` [Zoniporide, reference compound], the “comparison of NHE inhibitors on SOCE (rank order)” value in series [2] is reported as “Zoniporide>Cariporide, EIPA>Rimeporide”. The “comparison of NHE inhibitors on 22Na+ fluxes (rank order)” value in [4] (myotubes) is “Zoniporide>Cariporide, EIPA>Rimeporide”.
`Cc1cc(S(C)(=O)=O)c(S(C)(=O)=O)cc1C(=O)NC(=N)N` [Rimeporide, N-(4,5-bismethanesulfonyl-2-methylbenzoyl)guanidine]: the “percentage of CD68+ cells relative to total nuclei in lung tissue” value in series [5] is given as “significantly lower”. Besides, the “fibrosis in the heart and the diaphragm” value in series [6] is “antifibrotic effect”. Further, in series [7], the infarct size entry is on record as “reduce dose dependent infarct size”. The “effect on NHE activity in PASMCs” value in series [8] is “inhibits NHE activity in the PASMCs in a dose-dependent manner”. In addition, in series [9] (Rimeporide single oral dose, 10 μM ADP, 3, 24 and 48 hours post-dose), the “effect on platelet aggregation” value is “no evidence of inhibition of platelet aggregation”. The “reduction in Cathepsin B activity, forelimb” value in series [10] (forelimb) is −26%. Also, the “reduction in Cathepsin B activity, hindlimb” value in series [10] (hindlimb) is on record as −22%. Further, in series [11], the “RV fibrosis (Sirius Red)” value is “significantly lower fibrosis” and the “Right Ventricle/Left Ventricle+Septum (RV/LV+S) weight ratio” value is reported as “no statistically significant difference”. The pulmonary vascular fibrosis result in series [12] is on record as “significantly lower fibrosis”. Moreover, the “effect on store-operated calcium entry (SOCE)” value in series [2] is listed as “inhibition of SOCE; also recorded: dose-dependently prevented SOCE”. Also, in [2] (dystrophic myotubes), the “concentration giving strong SOCE inhibition reaching basal levels” value was 30 µM and the “lowest concentration with statistical differences in SOCE inhibition” value turned out to be 3 µM. Also, in series [2] (myotubes), the “comparison of NHE inhibitors on SOCE (rank order)” value was “weakest inhibitor”. Further, in series [13], the IC50 (usually the concentration needed to halve the response being measured) turned out to be 0.455 µM. Moreover, the “effects on PT and APTT” value (Rimeporide single oral dose study) is “No effects”. In series [14] (1 hour post-dose), the “plasma concentration, Subject 15” value is 0.159 µg/mL. The “plasma concentration, Subject 15” value in series [14] (3 hours post-dose) turned out to be 3.69 µg/mL. Moreover, in series [15], the “RV End Diastolic Pressure (EDP)” value is on record as “significantly lower pressure”, the “RV Tau” value was “significantly lower Tau” and the RV systolic pressure entry is reported as “significantly lower pressure”. Further, in [16], the “rate constant of platelet swelling reaction post-dose vs pre-dose” value is “post-dose decrease in rate constant was consistently observed”. Also, in series [17], the “reduction in inflammation in the diaphragm (H&E) relative to vehicle” value worked out at 44%. Further, in series [18], the “subjects with some evidence of platelet swelling inhibition” value is listed as 67%. Also, in [19], the “Mean Pulmonary Arterial Pressure (mPAP)” value is reported as “significantly lower mPAP”, the “Pulmonary Artery Acceleration Time/Ejection Time (PA AT/ET)” value is “significantly higher PA AT/ET ratio”, the “RV cardiac output (CO)” value is reported as “significantly higher RV CO” and the “RV free wall thickness” value is given as “significantly lower RV free wall thickness”. In addition, in [19], the “RV internal diameter at diastole” value is “significantly lower RV internal diameter”. Moreover, the “Term, TNFα” value in [20] (Luminex) is reported as −0.1726. In addition, in series [20] (OLink), the “Term, CCL15” value was −0.4489; the “Term, FAS” value is −0.2823; the “Term, KLK6” value is −0.2612; the “Term, MCP-1/CCL2” value is on record as −0.5675. Moreover, the inhibition at 100 µM in [4] (100 μM, after 10 to 20 min of influx, myotube cultures, read-out: inhibition of 22Na+ accumulation / Na+ influx) is ~40%. Besides, the “comparison of NHE inhibitors on 22Na+ fluxes (rank order)” value in series [4] (myotubes) is recorded as “weakest inhibitor”. Also, in series [4] (pretreatment 1-100 μM, normal and dystrophic myotubes), the “effect on 22Na+ accumulation” value is “dose-dependent inhibition”. Besides, in series [21], the infarct size entry is given as “decrease infarct size”. In addition, in [22], the “myocardial hypertrophy and left ventricular function” value is “significantly and dose dependently reduce myocardial hypertrophy and preserve left ventricular function”; the survival entry was “substantial improvement in survival”.
Turning to `CCN(c1nc(N)c(C(=O)N=C(N)N)nc1Cl)C(C)C` [EIPA, 5-(N-ethyl-N-isopropyl)amiloride, reference compound], in [2] (myotubes), the “comparison of NHE inhibitors on SOCE (rank order)” value is on record as “Zoniporide>Cariporide, EIPA>Rimeporide”. Besides, in series [4] (myotubes), the “comparison of NHE inhibitors on 22Na+ fluxes (rank order)” value was “Zoniporide>Cariporide, EIPA>Rimeporide”.
In the case of `CC(C)c1ccc(C(=O)NC(=N)N)cc1S(C)(=O)=O` [Cariporide, N-(Diaminomethylidene)-3-methanesulfonyl-4-(propan-2-yl) benzamide], the “comparison of NHE inhibitors on SOCE (rank order)” value in series [2] is “Zoniporide>Cariporide, EIPA>Rimeporide”. The IC50 in [13] came out at 0.166 µM. In [4], the “comparison of NHE inhibitors on 22Na+ fluxes (rank order)” value was “Zoniporide>Cariporide, EIPA>Rimeporide”.
For the molecule `Cc1cc(-n2cccc2)c(S(C)(=O)=O)cc1C(=O)NC(=N)N` [Eniporide, N-(diaminomethylidene)-2-methyl-5-methylsulfonyl-4-pyrrol-1-ylbenzamide], the “inhibition of platelet swelling immediately post dosing” value in [23] (50 mg and above, intravenous) is “total inhibition”. Besides, in series [23] (2 times 200 mg as an infusion, 6 hours post first dose), the “inhibitory activity on platelet swelling” value was determined as 80%. Further, the “inhibitory activity on platelet swelling remaining” value is “More than 80%” in [23] (1.5 hours post dose, doses 100-200 mg) and “More than 80%” in [23] (3 hours post dose, doses 250-400 mg). In [23] (healthy subjects, single intravenous dose), the “dose from which platelet swelling was reduced” value is listed as ≥ 5 mg. The “effect on platelet aggregation” value in series [9] (human, in vivo) was “No clinically relevant effect”. The IC50 in series [13] was determined as 0.03 µM. For the same molecule, the “effects on PT or APTT” value (human, in vivo) is “no clinically relevant effects”.
With `NC1=N[C@H](O)[C@H]2[C@H]3O[C@]4(O)O[C@@H]([C@@H](O)[C@@]2(N1)[C@@H]4O)[C@]3(O)CO` [tetrodotoxin], in [4], the “further decrease of 22Na+ influx” value is “around 8%”.
